# Measured values taken from PMC5580309, “Molecular-scale features that govern the effects of O-glycosylation on a carbohydrate-binding module” (Chemical Science, 2015).
# Bridge positions count the residues as written; N and C are the ends. Peptide text beside a SMILES is read from it. * marks the point of attachment. αMan = OC[C@H]1O[C@H](*)[C@@H](O)[C@@H](O)[C@@H]1O
# Target: T1, thermolysin (Bacillus thermoproteolyticus, UniProt P00800)
# T1 sequence (P00800 233-548): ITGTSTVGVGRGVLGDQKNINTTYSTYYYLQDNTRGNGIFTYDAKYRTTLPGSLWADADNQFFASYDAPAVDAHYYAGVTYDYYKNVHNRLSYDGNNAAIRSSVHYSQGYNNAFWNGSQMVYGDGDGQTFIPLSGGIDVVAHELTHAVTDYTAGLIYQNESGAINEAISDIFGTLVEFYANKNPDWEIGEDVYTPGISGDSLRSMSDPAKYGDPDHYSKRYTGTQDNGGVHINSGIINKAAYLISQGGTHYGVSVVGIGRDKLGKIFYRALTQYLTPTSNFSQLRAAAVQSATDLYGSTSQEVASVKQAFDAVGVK
# Test: Proteolytic stability: half-life to thermolysin degradation
# Format: in vitro ADME
# Settings: for Change in Half-Life to Thermolysin Degradation: glyco-variant minus its corresponding unglycosylated CBM (e.g. 2-1), *** not used in the correlation plot; for half-life: thermolysin (isolated protease), thermolysin degradation, mean of three trials ± SD, procedures as described previously (ESI ref 18)
# Protocol: All error bars reported are standard deviations of data achieved from three separate trials.
# cellulose that were determined in accordance with our procedures as described previously 18.
# The results are presented as mean of three trials ± SD. *Denotes an averaged value of four trials
SMILES,Change in Half-Life to Thermolysin Degradation,half-life
"CC[C@H](C)[C@@H]1NC(=O)CNC(=O)CNC(=O)[C@@H](NC(=O)[C@H](CCC(N)=O)NC(=O)CNC(=O)[C@H](Cc2ccc(O)cc2)NC(=O)[C@H](C)NC(=O)[C@H](CO[C@H]2O[C@H](CO)[C@@H](O)[C@H](O)[C@@H]2O)NC(=O)[C@H](CCC(N)=O)NC(=O)[C@@H](N)[C@@H](C)O)CSSC[C@@H]2NC(=O)[C@H]([C@@H](C)O)NC(=O)[C@H]([C@@H](C)O)NC(=O)CNC(=O)[C@H](CO)NC(=O)[C@H](C)NC(=O)[C@H](CSSC[C@@H](C(=O)N[C@@H](CC(C)C)C(=O)O)NC(=O)[C@H](CCC(N)=O)NC(=O)[C@H](CO)NC(=O)[C@H](Cc3ccc(O)cc3)NC(=O)[C@H](Cc3ccc(O)cc3)NC(=O)[C@@H]3CCCN3C(=O)[C@H](CC(N)=O)NC(=O)[C@H](CC(C)C)NC(=O)[C@H](C(C)C)NC(=O)[C@H](CCC(N)=O)NC2=O)NC(=O)[C@H](C(C)C)NC(=O)[C@H]([C@@H](C)O)NC(=O)[C@@H]2CCCN2C(=O)CNC(=O)[C@H](CO)NC(=O)[C@H](Cc2ccc(O)cc2)NC(=O)CNC1=O [CBM variant 9] (H-TQS(αMan)AYGQCGGIGYSGPTVCASGTTCQVLNPYYSQCL-OH; disulfide 8-25, 19-35)",25.8 min,39 ± 3 min
"CC[C@H](C)[C@@H]1NC(=O)CNC(=O)CNC(=O)[C@@H](NC(=O)[C@H](CCC(N)=O)NC(=O)CNC(=O)[C@H](C)NC(=O)[C@H](Cc2c[nH]cn2)NC(=O)[C@H](CO)NC(=O)[C@H](CCC(N)=O)NC(=O)[C@@H](N)[C@@H](C)O)CSSC[C@@H]2NC(=O)[C@H]([C@@H](C)O)NC(=O)[C@H]([C@@H](C)O)NC(=O)CNC(=O)[C@H](CO)NC(=O)[C@H](C)NC(=O)[C@H](CSSC[C@@H](C(=O)N[C@@H](CC(C)C)C(=O)O)NC(=O)[C@H](CCC(N)=O)NC(=O)[C@H](CO)NC(=O)[C@H](Cc3ccc(O)cc3)NC(=O)[C@H](Cc3ccc(O)cc3)NC(=O)[C@@H]3CCCN3C(=O)[C@H](CC(N)=O)NC(=O)[C@H](CC(C)C)NC(=O)[C@H](C(C)C)NC(=O)[C@H](CCC(N)=O)NC2=O)NC(=O)[C@H](C(C)C)NC(=O)[C@H]([C@@H](C)O)NC(=O)[C@@H]2CCCN2C(=O)CNC(=O)[C@H](CO)NC(=O)[C@H](Cc2ccc(O)cc2)NC(=O)CNC1=O [CBM variant 10] (H-TQSHAGQCGGIGYSGPTVCASGTTCQVLNPYYSQCL-OH; disulfide 8-25, 19-35)",,4.8 ± 1.2 min
"CC[C@H](C)[C@@H]1NC(=O)CNC(=O)CNC(=O)[C@@H](NC(=O)[C@H](CCC(N)=O)NC(=O)CNC(=O)[C@H](C)NC(=O)[C@H](Cc2c[nH]cn2)NC(=O)[C@H](CO[C@H]2O[C@H](CO)[C@@H](O)[C@H](O)[C@@H]2O)NC(=O)[C@H](CCC(N)=O)NC(=O)[C@@H](N)[C@@H](C)O)CSSC[C@@H]2NC(=O)[C@H]([C@@H](C)O)NC(=O)[C@H]([C@@H](C)O)NC(=O)CNC(=O)[C@H](CO)NC(=O)[C@H](C)NC(=O)[C@H](CSSC[C@@H](C(=O)N[C@@H](CC(C)C)C(=O)O)NC(=O)[C@H](CCC(N)=O)NC(=O)[C@H](CO)NC(=O)[C@H](Cc3ccc(O)cc3)NC(=O)[C@H](Cc3ccc(O)cc3)NC(=O)[C@@H]3CCCN3C(=O)[C@H](CC(N)=O)NC(=O)[C@H](CC(C)C)NC(=O)[C@H](C(C)C)NC(=O)[C@H](CCC(N)=O)NC2=O)NC(=O)[C@H](C(C)C)NC(=O)[C@H]([C@@H](C)O)NC(=O)[C@@H]2CCCN2C(=O)CNC(=O)[C@H](CO)NC(=O)[C@H](Cc2ccc(O)cc2)NC(=O)CNC1=O [CBM variant 11] (H-TQS(αMan)HAGQCGGIGYSGPTVCASGTTCQVLNPYYSQCL-OH; disulfide 8-25, 19-35)",6 min,10.8 ± 1.8 min
